Laboratory results as given in patent US20140045883A1, “ACK1 KINASE INHIBITION TO TREAT TRIPLE NEGATIVE BREAST CANCER” (H. Lee Moffitt Cancer Center and Research Institute, Inc., priority 2012, published 2014).
Where two headings read alike, the source gives them in different places.

What was measured:
Ack1 [1] = molecular target: Ack1 (Homo sapiens, UniProt Q07912); assay type: cell-based; conditions: MCF-7 and A2780-CP cells, AIM-100 overnight (3 μM), insulin or EGF stimulated
Method: (§1) FIGS. 3A-3B are images of immunoblots of lysates from serum starved MCF-7 and A2780-CP cells treated (or untreated) with insulin or EGF (10 ng/ml) and AIM-100 (3 μM, overnight) that were immunoblotted with pTyr176-AKT (top panel), pSer473-AKT (2nd panel), pThr308-AKT (3rd panel), pTyr284-Ack1 (4th panel) and tubulin (bottom panel).
(§2) To assess the potential inhibition of Ack1 activity, MCF-7 (breast) and A2780-CP (Ovary) cells were treated with AIM-100 overnight. Cells were either untreated or treated with Insulin (for 30 mins) or EGF (15 min) followed by immunoblotting of lysates with pTyr284-Ack1 antibody.

AKT = experiment: Immunoblot of AKT phosphorylation in insulin/EGF-treated MCF-7 and A2780-CP cells; assay type: cell-based; conditions: AIM-100 overnight (3 μM), insulin or EGF stimulated
Method: as §1, §2

MDA-MB-231 cell line = experiment: Cell growth assay (WST1); assay type: cell-based; conditions: MDA-MB-231, 72 hours, read-out: IG50 (cell growth)
Method: (§3) Experiment was performed twice with 8 replicates, a representative data set is shown.
(§4) To determine whether inhibition of the Ack1/AKT signaling pathway affects TNBC-derived cancer cell proliferation, MDA-MB-231 and MDA-MB-468 cell lines were treated with increasing concentrations of PLX-4032 or AIM-100. A cell growth assay was performed by adding solution of WST1 to 96 wells (5×10^3 cells) and incubation for 1 h. The cell viability as a function of mitochondrial activity in living cells was measured spectrophotometrically at a wavelength of 450 nm.

MDA-MB-468 cell line = experiment: Cell growth assay (WST1); assay type: cell-based; conditions: MDA-MB-468, 72 hours
Method: as §3, §4

pTyr176-AKT = experiment: Affinity Purification coupled ELISA for pTyr176-AKT in MDA-MB-231; assay type: cell-based; conditions: MDA-MB-231 cells treated with inhibitor
Method: FIG. 6 is a bar graph showing Affinity Purification coupled ELISA for pTyr176-AKT detection in TNBC derived cell line MDA-MB-231. MDA-MB-231 cell lysates were incubated with streptavidin beads with AKT peptide. The AKT peptides were eluted and phosphorylation was detected using ELISA.
Towards detecting pY176-AKT in TNBC derived cell lines, MDA-MB-231 (1×10^4 cells) were lysed in reaction buffer containing phosphatase and protease inhibitors and lysates were quantitated. Biotinylated AKT peptide was incubated with streptavidin beads for 1 hours, beads were washed and the AKT peptide coated beads were incubated with cell lysates for 1 hours at room temperature. The beads were washed in PBST and the bound peptides were eluted. To elute the bound biotinylated AKT peptide from Streptavidin Beads, Streptavidin Beads were resuspended in 10 mM NaCl containing solution followed by heating the mix at 75° C. for 2-3 minutes, as described in literature (33). The eluted AKT peptides were immobilized onto streptaviding plates and presence of phospho-peptides was detected by ELISA described above in step I.

xenograft tumor = experiment: Xenograft tumor growth; conditions: in vivo
purified Ack1 kinase = purified Ack1 kinase (Homo sapiens, UniProt Q07912); conditions: inhibitor 50 nM, Ack1 50 nM, 5 uM ATP, 1 hour
purified Ack1 kinase, sequence (Q07912 whole entry): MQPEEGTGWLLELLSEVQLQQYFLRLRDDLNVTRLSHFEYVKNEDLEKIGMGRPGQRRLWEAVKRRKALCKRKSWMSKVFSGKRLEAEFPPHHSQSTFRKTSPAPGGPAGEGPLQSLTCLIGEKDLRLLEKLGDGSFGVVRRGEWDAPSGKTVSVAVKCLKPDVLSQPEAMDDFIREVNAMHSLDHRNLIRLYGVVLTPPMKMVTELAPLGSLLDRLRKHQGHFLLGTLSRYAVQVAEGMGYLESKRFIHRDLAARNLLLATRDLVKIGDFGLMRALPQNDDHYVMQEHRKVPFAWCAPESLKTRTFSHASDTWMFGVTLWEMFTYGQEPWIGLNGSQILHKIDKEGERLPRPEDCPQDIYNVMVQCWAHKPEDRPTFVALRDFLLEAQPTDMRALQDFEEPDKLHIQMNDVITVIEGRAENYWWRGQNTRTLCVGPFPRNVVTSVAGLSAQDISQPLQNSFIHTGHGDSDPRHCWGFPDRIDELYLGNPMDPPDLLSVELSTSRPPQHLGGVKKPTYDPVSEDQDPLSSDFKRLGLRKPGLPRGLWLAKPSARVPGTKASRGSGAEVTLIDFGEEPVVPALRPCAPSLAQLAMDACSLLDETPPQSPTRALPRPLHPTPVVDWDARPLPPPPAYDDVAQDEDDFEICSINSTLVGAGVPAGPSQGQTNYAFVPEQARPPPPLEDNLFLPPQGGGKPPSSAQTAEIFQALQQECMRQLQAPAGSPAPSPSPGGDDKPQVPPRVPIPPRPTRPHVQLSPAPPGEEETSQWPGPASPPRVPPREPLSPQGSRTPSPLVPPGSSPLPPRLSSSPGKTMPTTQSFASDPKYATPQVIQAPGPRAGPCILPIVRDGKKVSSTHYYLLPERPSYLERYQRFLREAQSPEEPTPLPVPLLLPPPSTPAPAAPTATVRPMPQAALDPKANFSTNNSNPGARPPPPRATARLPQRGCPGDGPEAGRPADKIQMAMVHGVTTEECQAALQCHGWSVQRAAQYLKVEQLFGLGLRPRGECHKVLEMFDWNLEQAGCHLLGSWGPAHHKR
Method: The peptides sequence is derived from the region that is recognized by Ack1 leading to AKT Tyr176-phosphorylation and activation (13, 15, 17). The phospho-AKT peptide was used as a positive control and as a standard for quantitation of pT176-AKT in tissue samples.
The AKT peptides were diluted to final concentration of 1 uM in phosphate buffered saline (PBS) and immobilized onto streptavidin plates (R & D systems) for 1 hour. […] After 1 hour of incubation, plates were washed in PBST and secondary antibody (HRP-conjugated anti-rabbit antibody diluted in BSA) was added. After 1 hour, plates were washed in PBST and devoped using OPD substrate (Sigma) and read at 450 nm.

Ack1 [2] = experiment: Ack1 autoactivation in transfected HEK293 cells (HA immunoprecipitation, pTyr immunoblot); conditions: HEK293 cells transfected with HA-tagged Ack1 WT/point mutants, 5 uM overnight
Method: Immunoprecipitation with HA-beads followed by immunoblotting with pTyr (top and middle panel) or Ack1 (bottom panel) antibodies was performed.
Site directed mutagenesis was performed and HA-tagged point mutants were generated. HEK293 cells were transfected, grown in growth factor free media, followed by immunoprecipitation with HA-beads.

Ack1 (Homo sapiens, UniProt Q07912), sequence (Q07912 whole entry): as above

Row | Structure (SMILES) | endogenous pTyr284-Ack1 levels (Ack1 [1]) | AKT Tyr176/Ser473 and Thr308-phosphorylations (AKT) | IC50 (MDA-MB-231 cell line) [µM] | cellular cytotoxicity (in words) (MDA-MB-468 cell line) | pTyr176-AKT levels (Affinity Purification Coupled ELISA) (pTyr176-AKT) | xenograft tumor growth (xenograft tumor) | AKT Tyr176-phosphorylation (ELISA) (purified Ack1 kinase) | Ack1 activation (pTyr immunoblot) (Ack1 [2]) | IC50 (MDA-MB-231 cell line; Homo sapiens) [µM] | IC50 (MDA-MB-468 cell line; Homo sapiens, read-out: IG50 (cell growth)) [µM]
1 | c1ccc(-c2oc3ncnc(NC[C@@H]4CCCO4)c3c2-c2ccccc2)cc1 [AIM-100] | significantly decreased | significant decrease | ~16 | rather resistant | significant decrease | suppresses | significant decrease | completely abrogated Ack1 activation | – | –
2 | CCCS(=O)(=O)Nc1ccc(F)c(C(=O)c2c[nH]c3ncc(-c4ccc(Cl)cc4)cc23)c1F [PLX4032, Vemurafenib] | – | – | – | – | significant decrease | – | – | completely abrogated Ack1 activation | ~13 | ~13
